Test results: PMC8778678 (Viruses, 2022)
Entries after “also recorded” stand apart in the source; their conditions may differ. Read-outs that look alike come from different tables or passages of the source.

Experiments:
Vero E6 cells = settings: African green monkey
in vitro [1] = settings: African green monkey, CC50 (half-maximal cytotoxic concentration)
[2] = system: SARS-CoV-2 IHUMI-6 strain; format: cell-based; settings: Vero E6 cells, according to the strain used
[3] = system: SARS-CoV-2 IHUMI-6 strain; experiment: microbe, parasite or virus in culture; format: cell-based
[4] = system: autophagic flux in Vero E6 cells; experiment: Western blot of autophagy markers LC3-II and p62 with or without Baf A1; format: cell-based, African green monkey; settings: uninfected Vero E6 cells, 24 h, with or without Baf A1 for the last 4 h, normalized to GAPDH
[5] = system: SARS-CoV-2 hCoV-19_IPL_France strain; format: cell-based; settings: wild-type Vero E6 cells, MOI 0.025, 16 h, increasing doses
[6] = system: SARS-CoV-2 hCoV-19_IPL_France strain; format: cell-based; settings: Vero E6-TMPRSS2 cells, MOI 0.025, 16 h, increasing doses
[7] = system: SARS-CoV-2-infected Vero E6 cells; experiment: Immunofluorescence assays; format: cell-based, African green monkey; settings: IHUMI-6, MOI 0.1, 48 h post-infection, versus infected untreated, p = 0.03
[8] = system: SARS-CoV-2-infected Vero E6 cells; format: cell-based; settings: 4 µM, 2 h, then IHUMI-6 infection 24 h
[9] = system: SARS-CoV-2 BetaCoV/France/IDF0372/2020 strain; design: species or system K18-hACE2 mouse; settings: mouse, in vivo
cathepsin L (CTSL) = system: cathepsin L (CTSL); design: method as in ref 16, 33 = [16]; settings: cited from earlier work
cathepsin B (CTSB) = system: cathepsin B (CTSB); design: method as in ref 16, 33 = [16]; settings: cited from earlier work
in vitro [10] = settings: human
SARS-CoV-2 = system: SARS-CoV-2; design: method as in ref 28 = [28]; settings: Vero E6 system; read-out: EC50, SARS-CoV-2 cytopathic effect; cited from earlier work

## CCN(CC)CCCC(C)Nc1ccnc2cc(Cl)ccc12 (centres unmarked) [Chloroquine, chloroquine]
Vero E6 cells
  CC50: 73.2 µM
In vitro [1]
  CC50: 73.2 µM

## CC(C)(C)NC1CCN(c2cc(NCc3ccc(Cl)cc3)nc3ccccc23)CC1 [GNS561, Ezurpimtrostat]
[2]
  inhibitory concentration relative to remdesivir: 50.5–200 times
[3]
  selectivity index: moderate
[3]; Severe acute respiratory syndrome coronavirus 2, in Homo sapiens, human lung Calu-3 cells, IHUMI-6 strain, 48 h, read-out: EC50 antiviral activity
  EC50: 1.1 µM
[4]
  Normalized LC3-II protein expression: increased in a dose-dependent manner
  p62 protein level: The same observation
[5]
  SARS-CoV-2 N protein level compared to untreated: did not alter the N protein level
[6]
  SARS-CoV-2 N protein level compared to untreated: did not alter the N protein level
[7]
  LC3B signal (LC3B clusters): enhanced
[8]
  volume (area) of autophagic vacuoles in the cytoplasm: increase in the volume of autophagic vacuoles
[9]
  lung SARS-CoV-2 viral load: decline in SARS-CoV-2 virions in the lungs; also recorded: downward trend; also recorded: moderate
  lung tissue ultrastructure (autophagic vacuoles, multilamellar bodies): autophagic vacuole accumulation with increased electron density
Cathepsin L (CTSL)
  enzymatic activity of cathepsin L: significantly impair
Cathepsin B (CTSB)
  enzymatic activity of cathepsin B: significantly impair
In vitro [10]
  CC50 at 48 h: 4.6 µM

## Cc1ccc(NCCN(C)CCNc2ccnc3cc(Cl)ccc23)c2c(=O)c3ccccc3sc12 [ROC-325]
SARS-CoV-2
  EC50: 3.28 µM
